“And” between values parts separate entries of the source, which are not always exact repeats. Equal values may be shown once. “Also recorded” adds a separate entry of the source.

Assay [1] relates to Sitophilus oryzae. Kind of assay: Flour disk antifeedant bioassay with rice weevils (food consumption as % of control; EC50/EC90 for feeding reduction). It counts as in vivo. The settings on record: for food consumption, initial treatment: Table 20, saponin alone; for food consumption, peptide to saponin treatment ratio 1:9 / food consumption, peptide to saponin treatment ratio 1:1 / food consumption, peptide to saponin treatment ratio 9:1: peptide source AIEX YM3; for Feeding as a percent of control (%): saponin:peptide ratio 1:0 (saponin or soap alone), concentration 0.8%; for antifeedant activity (in words): rice weevil flour disk bioassay. Here is the method:
The bioactivity of separated fractions was determined primarily by a flour disk antifeedant bioassay with the rice weevil (Sitophilus oryzae), an insect pest of stored products.
A glass column (1.2 cm internal diameter×20.5 cm length) equipped with a solvent reservoir and stopcock was filled with silica gel (Mallinckrodt SilicAR cc-7) using a slurry of the silica gel in chloroform (Merck OmniSolv containing 1% ethanol). The top of the bed was protected with sea sand. C8 powder (130 mg) was applied to the column, after mixing with silica gel, as a 1.25 cm band. Using a slight positive air pressure to maintain reasonable flow rates, the column was eluted with chloroform (75 ml) then with 75 ml volumes of various mixtures of chloroform and methanol followed by pure methanol (Table 1). The column was eluted with more methanol (75 ml) and finally with two additional volumes of methanol (250 ml each). […] A final evaporation was performed with a Savant apparatus (43° C.). The tubes were re-weighed, capped and transferred to the bioassay laboratory. Each sample was dissolved in 70% ethanol (0.5 ml) and 0.2 ml of that solution was added to the wheat flour (200 mg) for preparation of the disks. […] Control disks were prepared with 0.2 ml of 70% ethanol.
A test insecticidal compound is incorporated into flour disks. […] A typical dose in many of the above examples is 1.6 milligram/200 milligram flour. Wheat flour is typically used.
(§1) Reduction in feeding activity elicited by the experimental samples was compared to food consumption of untreated controls, obtained by weighing the disks before and after exposure to insects and expressed as percent feeding relative to the control. Bioassay can also include insecticidal measurements (lethality with rice weevil).
(§2) Flour disks (ca. 0.1 g/disk) were weighed before and after exposure to the insects. […] Antifeedant activity was determined by expressing consumption of treated disks as a percentage of control disks (70% ethanol). Positive controls using the same C8 extract were run with each bioassay.
The estimate and confidence limits are the values of X where the line Y=Yo crosses the regression line and its upper and lower confidence curves, respectively. The formulae can be expressed in terms of outputs from the regression analysis. Let a and b be the estimates of the intercept and slope, MSE the mean square error, n the number of observations, t the (2-sided) critical value of t with n−2 degrees of freedom, V(b) the variance (standard error squared) of b and D=b^2−t^2V(b)). Then the estimate of X is Xo=(Yo−a)/b and the confidence limits for X are X0+t^2V(b)(Y0− Y)/bD±H where H^2=t^2└D·MSE/n+V(b)(Y0− Y)^2┘/D^2. The interval is not symmetric about Xo. […]

Assay [2] concerns Sitophilus oryzae. It counts as in vivo. The note with it: for Mean survival time (days ± SE): 0.8%, Kaplan-Meier. Here is the method: as §1, §2
Probit analysis (Polo-PC, LeOra Software, Berkeley, Calif., U.S.A.) was used to estimate the concentrations required to kill 50 and 90% of the population after seven days. For the experiments that used a single dose, the mean survival time was estimated using Kaplan-Meier survival analysis (SigmaStat 3.0, SPSS Inc, Chicago, Ill., U.S.A.).

[3] abbreviates: total dose 1.6 mg/200 mg of flour.
Setting [4] is: total dose 1.6 mg/200 mg of flour (D-I: 0.8 mg/100 mg).
The mark [5] stands for this setting: C8 material as peptide source, total dose 1.6 mg/200 mg of flour.

As for `C[C@@H]1O[C@@H](O[C@H]2[C@H](O[C@H]3CC[C@@]4(C)[C@@H](CC[C@]5(C)[C@@H]4CC=C4[C@@H]6CC(C)(C)CC[C@]6(C(=O)O)CC[C@]45C)[C@]3(C)CO)OC[C@H](O)[C@@H]2O)[C@H](O)[C@H](O)[C@H]1O` [α-Hederin, α-hederin], the “food consumption, initial treatment” value with Sitophilus oryzae [1] (1.6 mg/200 mg of flour) is on record as 36 % of control. Besides, in the assay with Sitophilus oryzae [1] (setting [3]), the “food consumption, peptide to saponin treatment ratio 1:9” value is 26 % of control. In the assay with Sitophilus oryzae [1] (setting [4]), the “food consumption, peptide to saponin treatment ratio 1:1” value is on record as 26 % of control and the “food consumption, peptide to saponin treatment ratio 9:1” value is listed as 24 % of control. Further, in the assay with Sitophilus oryzae [1], the “Feeding as a percent of control (%)” value is given as 36%.
For the molecule `CCCCCCCCCCCC(=O)OCCOCCOCCOCCOCCOCCOCCOCCOCCOCCOCCOCCOCCOCCOCCOCCOCCOCCOCCOCCOCC(OCCOCCOCCOCCOCCOCCOCCOCCOCCOCCOCCOCCOCCOCCOCCOCCOCCOCCOCCOCCO)C1OCC(OCCOCCOCCOCCOCCOCCOCCOCCOCCOCCOCCOCCOCCOCCOCCOCCOCCOCCOCCOCCO)C1OCCOCCOCCOCCOCCOCCOCCOCCOCCOCCOCCOCCOCCOCCOCCOCCOCCOCCOCCOCCO` (stereo not drawn) [Tween 20, polyoxyethylene(20)sorbitan monolaurate], in the assay with Sitophilus oryzae [1], the “Feeding as a percent of control (%)” value is on record as 106%. The “Mean survival time (days ± SE)” value with Sitophilus oryzae [2] (saponin:peptide ratio 1:0) was determined as 13.7 a days. In the assay with Sitophilus oryzae [2] (used alone), the “mortality / toxicity to the rice weevil (in words)” value is “Neither Tween or dish soap were toxic”.
As to `Cc1occc(=O)c1O` [maltol, 3-hydroxy-2-methyl-4-pyrone], the “f.c. (food consumption)” value in the assay with Sitophilus oryzae [1] (Table 4, 1.6 mg/200 mg of flour) was 110 % of control. Besides, the “antifeedant activity (in words)” value in the assay on Sitophilus oryzae [1] was “inactive”.
With β-escin, in the assay with Sitophilus oryzae [1] (setting [5]), the “food consumption, peptide to saponin treatment ratio 1:1 (values in brackets)” value is reported as “(15) % of control” and the “food consumption, peptide to saponin treatment ratio 1:9 (values in brackets)” value is recorded as “(16) % of control”. For the same molecule, the “food consumption, peptide to saponin treatment ratio 9:1 (values in brackets)” value in the assay with Sitophilus oryzae [1] (C8 material as peptide source, total dose 1.6 mg/200 mg of flour (D-I: 0.8 mg/100 mg)) is listed as “(14) % of control”. Besides, in the assay on Sitophilus oryzae [1] (setting [3]), the “food consumption, peptide to saponin treatment ratio 1:9” value is listed as 18 % of control. For the same molecule, in the assay with Sitophilus oryzae [1] (setting [4]), the “food consumption, peptide to saponin treatment ratio 1:1” value is recorded as 17 % of control and the “food consumption, peptide to saponin treatment ratio 9:1” value is on record as 17 % of control. For the same molecule, the “Feeding as a percent of control (%)” value with Sitophilus oryzae [1] was 18% and 30%. In addition, in the assay on Sitophilus oryzae [1] (saponin:peptide ratio 1:0, three days on treated wafers), the “EC90 (%) to reduce feeding by 90%” value was 1.5%. Besides, the “Mean survival time (days ± SE)” value in the assay on Sitophilus oryzae [2] (saponin:peptide ratio 1:0) is listed as 6.3 ± 0.2 a days. In addition, the “LD90 (%)” value with Sitophilus oryzae [2] (saponin:peptide ratio 1:0, held three days on treated wafers, at 7 days) is given as 1.74%.
As for `CCCCCCCCCCCCCCCC(=O)OC[C@@H](O)COP(=O)([O-])OCC[N+](C)(C)C` [L-16:0], the “food consumption in the rice weevil bioassay” value with Sitophilus oryzae [1] (1.6 mg/200 mg flour, relative to control) was determined as 102%. Besides, in the assay on Sitophilus oryzae [1] (lysolecithin-saponin (soyasaponin I) mixtures, similar experiments, total dose 0.016-1.6 mg/200 mg of flour), the food consumption is 84-102%. Besides, the “food consumption, expressed as % of untreated control” value with Sitophilus oryzae [1] (mixtures of 90% lysolecithin and 10% peptides (AIEX YM3), total dose 0.016-1.6 mg/200 mg of flour) is recorded as 71-115%.
For the molecule `CC1(C)[C@@H](O[C@H]2O[C@H](C(=O)O)[C@@H](O)[C@H](O)[C@H]2O[C@@H]2O[C@H](C(=O)O)[C@@H](O)[C@H](O)[C@H]2O)CC[C@]2(C)[C@H]3C(=O)C=C4[C@@H]5C[C@@](C)(C(=O)O)CC[C@]5(C)CC[C@@]4(C)[C@]3(C)CC[C@@H]12` [Glycyrrhizic acid, glycyrrhizic acid], in the assay with Sitophilus oryzae [1] (1.6 mg/200 mg of flour), the “food consumption, initial treatment” value was 96 % of control. The “food consumption, peptide to saponin treatment ratio 1:9” value in the assay with Sitophilus oryzae [1] (setting [3]) is 39 % of control. Also, in the assay with Sitophilus oryzae [1] (setting [4]), the “food consumption, peptide to saponin treatment ratio 1:1” value is 45 % of control and the “food consumption, peptide to saponin treatment ratio 9:1” value was 33 % of control. For the same molecule, in the assay on Sitophilus oryzae [1], the “antifeedant activity (in words)” value is “inactive; also recorded: no significant reduction in feeding” and the “Feeding as a percent of control (%)” value was 96%. Moreover, in the assay on Sitophilus oryzae [1] (single dose tests, pea peptide to saponin treatment ratios of 9:1, 1:1 and 1:9), the “synergy with pea peptides (in words)” value is on record as “clearly synergistic”.

For the origin of these results see patent publication US8101408B2, “Insecticidal extract from legume plants and method of preparing the same” (Her Majesty the Queen in right of Canada, as represented by …, priority 2005, dated 2012).
